Measurements reported in US20170000749A1, “Methods for Treating Cognitive Disorders Using Inhibitors of Histone Deacetylase” (Forum Pharmaceuticals, Inc., priority 2008, published 2017).
Like-named read-outs stand apart in the source and are kept apart here.

Legend:
[1] = target: one or more of HDAC-1, HDAC-2, HDAC-3, HDAC-4, HDAC-5, HDAC-6, HDAC-7, HDAC-8, HDAC-9, HDAC-10 and HDAC-11; assay: Inhibition of Histone Deacetylase Enzymatic Activity (Boc-Lys(Ac)-AMC substrate, Fluor-de-Lys developer); format: biochemical; settings: read-out: HDAC Inhibition (IC50 μM) HDAC Enzyme
Method: The following protocol is used to assay the compounds of the disclosure.
The mixture is pre-incubated for 5 minutes at room temperature. The reaction is started by bringing the temperature to 37° C. and adding 16 μl substrate. Total reaction volume is 50 μl.
In the Tables 8, 9 and 10, A≦0.05 μM; 0.05 μM<B≦0.1 μM; 0.1 μM<C≦1 μM; and 1 μM<D≦10 μM.

[2] = system: HDAC activity in primary mouse cortical cultures; assay: Whole-Cell Histone Deacetylase (HDAC) Inhibition Assay in Primary Mouse Cortical Cultures; format: cell-based; settings: whole-cell (WC), mouse cortical neurons, read-out: HDAC Inhibition (IC50 μM) WC mouse cortical neurons
Method: Primary neocortical cultures are established through the dissection of the neocortex from E17 embryos harvested from time-pregnant Balb/C mice. Following dissection, the neocortical tissue specimens undergo digestion by incubation at 37° C. for 10 minutes in dissection medium (1×HBSS/10 mM HEPES/1 mM Sodium Pyruvate) supplemented with (0.25%) Trypsin and (0.1%) DNase I. Digested tissue is washed and resuspended in plating medium (NeuroBasal/10% HS/0.5 mM L-Glutamine (Invitrogen Corporation)) for trituration. Additional plating medium is added, and the contents are passed over a 70 um cell-strainer. The cell-density is quantified using a hemacytometer, and dilutions are made to allow for the plating of 50000 cells/well/100 uL in 96-well PDL-coated plates. Plates are incubated for 4-5 hours in 37° C./5% CO2-incubator, after which time the entire volume is exchanged to feeding medium (NeuroBasal/2% B-27 Serum-free supplement/0.5 mM L-Glutamine/1% Penicillin-Streptomycin (Invitrogen Corporation)). The cultures undergo two 50% fresh feeding medium exchanges at 3 days in vitro (DIV3), and again at DIV7.
Compounds for testing are resuspended in dimethyl sulphoxide (DMSO), and further diluted in DMSO for a ten-point dose-response curve, with appropriate controls. Each master plate is assayed in triplicate. […] Three DIV9 culture plates are leveled to 50 uL/well, onto which each has overlaid 50 uL/well of the diluted daughter plate. The plates are returned to the 37° C./5% CO2-incubator for 16-18 hours.
The next step of the assay involves the exposure of a HDAC colorimetric substrate, comprising an acetylated lysine side chain, to the compound-treated neuronal cultures. Based on the ability of the compound to inhibit HDAC activity in the neuronal cultures, the substrate is deacetylated by HDACs, and subsequently sensitized. […] Compound-incubated culture plates are again leveled to 50 uL/well and 2 uL/well of 7.5 mM BOC-Lys (Ac)-AMC substrate is added and thoroughly mixed. Plates are returned to the 37° C./5% CO2-incubator for 1 hour.
The final addition to the culture plates entails treatment with a Fluor de Lys™-based developer (BIOMOL Research Laboratories, Inc.) to produce a fluorophore, which is analyzed using a spectrophotometer. The developer solution (1×Fluor de Lys™/1% NP-40/1 uM TSA in HDAC Buffer Solution) is prepared, and 50 uL/well is added to each of the wells of the culture plates. […] The plates are returned to the 37° C./5% CO2-incubator for 10-15 minutes, after which time, they are removed and set in the dark at room temperature for 5-10 minutes.
Primary neocortical cultures were established through the dissection of the neocortex from E17 embryos harvested from time-pregnant Balb/C mice. Following dissection, the neocortical tissue specimens underwent digestion by incubation at 37° C. for 10 minutes in dissection medium (1×HBSS/10 mM HEPES/1 mM Sodium Pyruvate) supplemented with (0.25%) Trypsin and (0.1%) DNase I. Digested tissue was washed and resuspended in plating medium (NeuroBasal/10% HS/0.5 mM L-Glutamine (Invitrogen Corporation)) for trituration. Additional plating medium was added, and the contents passed over a 70 um cell-strainer. The cell-density was quantified using a hemacytometer, and dilutions made to allow for the plating of 50000 cells/well/100 uL in 96-well PDL-coated plates. Plates were incubated for 4-5 hours in 37° C./5% CO2-incubator, after which time the entire volume was exchanged to feeding medium (NeuroBasal/2% B-27 Serum-free supplement/0.5 mM L-Glutamine/l % Penicillin-Streptomycin (Invitrogen Corporation)). The cultures underwent two 50% fresh feeding medium exchanges at 3 days in vitro (DIV3), and again at DIV7.
Compounds for testing were resuspended in dimethyl sulphoxide (DMSO), and further diluted in DMSO for a ten-point dose-response curve, with appropriate controls. Each master plate was assayed in triplicate.

Compound	IC50 ([1]; Table 9) [µM]	IC50 ([2]; Table 9) [µM]	other results
O=C(NO)c1cnc(N2C[C@@H]3C[C@H]2CN3c2ccc(C(F)(F)F)cc2F)nc1 [2-((1S,4S)-5-(2-fluoro-4-(trifluoromethyl)phenyl)-2,5-diazabicyclo[2.2.1]heptan-2-yl)-N-hydroxypyrimidine-5-carboxamide]	< 0.05	1 to 5	–
O=C(NO)c1cnc(N2C[C@@H]3C[C@H]2CN3c2cc(C(F)(F)F)cc(C(F)(F)F)c2)nc1 [2-((1S,4S)-5-(3,5-bis(trifluoromethyl)phenyl)-2,5-diazabicyclo[2.2.1]heptan-2-yl)-N-hydroxypyrimidine-5-carboxamide]	< 0.05	1 to 5	–
CN(C)Cc1cccc(N2C[C@@H]3C[C@H]2CN3c2ncc(C(=O)NO)cn2)c1 [2-((1S,4S)-5-(3-((dimethylamino)methyl)phenyl)-2,5-diazabicyclo[2.2.1]heptan-2-yl)-N-hydroxypyrimidine-5-carboxamide]	< 0.05	< 1	–
O=C(NO)c1cnc(N2C[C@@H]3C[C@H]2CN3c2cccc(OC(F)F)c2)nc1 [2-((1S,4S)-5-(3-(difluoromethoxy)phenyl)-2,5-diazabicyclo[2.2.1]heptan-2-yl)-N-hydroxypyrimidine-5-carboxamide]	< 0.05	< 1	–
CN(C)C(=O)c1cccc(N2C[C@@H]3C[C@H]2CN3c2ncc(C(=O)NO)cn2)c1 [2-((1S,4S)-5-(3-(dimethylcarbamoyl)phenyl)-2,5-diazabicyclo[2.2.1]heptan-2-yl)-N-hydroxypyrimidine-5-carboxamide]	< 0.05	< 1	–
O=C(NO)c1cnc(N2C[C@@H]3C[C@H]2CN3c2cccc(F)c2)nc1 [2-((1S,4S)-5-(3-fluorophenyl)-2,5-diazabicyclo[2.2.1]heptan-2-yl)-N-hydroxypyrimidine-5-carboxamide]	< 0.05	< 1	–
O=C(NO)c1cnc(N2C[C@@H]3C[C@H]2CN3c2ccc(Cl)cc2)nc1 [2-((1S,4S)-5-(4-chlorophenyl)-2,5-diazabicyclo[2.2.1]heptan-2-yl)-N-hydroxypyrimidine-5-carboxamide]	< 0.05	< 1	–
O=C(NO)c1cnc(N2C[C@@H]3C[C@H]2CN3c2ccc(F)cc2)nc1 [2-((1S,4S)-5-(4-fluorophenyl)-2,5-diazabicyclo[2.2.1]heptan-2-yl)-N-hydroxypyrimidine-5-carboxamide]	0.05 to 0.1	< 1	–
O=C(NO)c1cnc(N2C[C@@H]3C[C@H]2CN3c2cccc3nonc23)nc1 [2-((1S,4S)-5-(benzo[c][1,2,5]oxadiazol-4-yl)-2,5-diazabicyclo[2.2.1]heptan-2-yl)-N-hydroxypyrimidine-5-carboxamide]	< 0.05	< 1	–
O=C(NO)c1cnc(N2C[C@@H]3C[C@H]2CN3c2ccc3nonc3c2)nc1 [2-((1S,4S)-5-(benzo[c][1,2,5]oxadiazol-5-yl)-2,5-diazabicyclo[2.2.1]heptan-2-yl)-N-hydroxypyrimidine-5-carboxamide]	< 0.05	< 1	–
O=C(NO)c1cnc(N2C[C@@H]3C[C@H]2CN3c2ccc3nsnc3c2)nc1 [2-((1S,4S)-5-(benzo[c][1,2,5]thiadiazol-5-yl)-2,5-diazabicyclo[2.2.1]heptan-2-yl)-N-hydroxypyrimidine-5-carboxamide]	< 0.05	< 1	–
O=C(NO)c1cnc(N2C[C@@H]3C[C@H]2CN3c2ccc3c(c2)OCO3)nc1 [2-((1S,4S)-5-(benzo[d][1,3]dioxol-5-yl)-2,5-diazabicyclo[2.2.1]heptan-2-yl)-N-hydroxypyrimidine-5-carboxamide]	< 0.05	< 1	–
O=C(NO)c1cnc(N2C[C@@H]3C[C@H]2CN3c2noc3ccccc23)nc1 [2-((1S,4S)-5-(benzo[d]isoxazol-3-yl)-2,5-diazabicyclo[2.2.1]heptan-2-yl)-N-hydroxypyrimidine-5-carboxamide]	< 0.05	< 1	–
O=C(NO)c1cnc(N2C[C@@H]3C[C@H]2CN3C(c2ccccc2)c2ccccc2)nc1 [2-((1S,4S)-5-benzhydryl-2,5-diazabicyclo[2.2.1]heptan-2-yl)-N-hydroxypyrimidine-5-carboxamide]	< 0.05	1 to 5	–
O=C(NO)c1cnc(N2C[C@@H]3C[C@H]2CN3C(=O)c2ccccc2)nc1 [2-((1S,4S)-5-benzoyl-2,5-diazabicyclo[2.2.1]heptan-2-yl)-N-hydroxypyrimidine-5-carboxamide]	< 0.05	< 1	–
O=C(NO)c1cnc(N2C[C@@H]3C[C@H]2CN3Cc2ccccc2)nc1 [2-((1S,4S)-5-benzyl-2,5-diazabicyclo[2.2.1]heptan-2-yl)-N-hydroxypyrimidine-5-carboxamide]	0.1 to 1	1 to 5	–
O=C(NO)c1cnc(NC(c2ccccc2)c2ccccc2)nc1 [2-(benzhydrylamino)-N-hydroxypyrimidine-5-carboxamide]	–	–	IC50 ([1]; Table 10): < 0.05 µM; IC50 ([2]; Table 10): < 1 µM
O=C(NO)c1cnc(OC(c2ccc(F)cc2)c2ccc(F)cc2)nc1 [2-(bis(4-fluorophenyl)methoxy)-N-hydroxypyrimidine-5-carboxamide]	–	–	IC50 ([1]; Table 10): 0.1 to 1 µM; IC50 ([2]; Table 10): > 15 µM
O=C(NO)c1cnc(ON=C(c2ccccc2)c2ccccc2)nc1 [2-(diphenylmethyleneaminooxy)-N-hydroxypyrimidine-5-carboxamide]	–	–	IC50 ([1]; Table 10): 1 to 10 µM; IC50 ([2]; Table 10): 5 to 15 µM
O=C(NO)c1ccc(N2C[C@@H]3C[C@H]2CN3c2cccc(C(F)(F)F)c2)cc1F [2-fluoro-N-hydroxy-4-((1S,4S)-5-(3-(trifluoromethyl)phenyl)-2,5-diazabicyclo[2.2.1]heptan-2-yl)benzamide]	0.1 to 1	5 to 15	–
O=C(NO)c1ccc(C2Nc3ccccc3Oc3ccccc32)cc1 (centres unmarked) [4-(10,11-dihydrodibenzo[b,f][1,4]oxazepin-11-yl)-N-hydroxybenzamide]	–	–	IC50 ([1]; Table 8): < 0.05 µM; IC50 ([2]; Table 8): 1 to 5 µM
N#Cc1cccc(N2C[C@@H]3C[C@H]2CN3c2ccc(C(=O)NO)cc2)c1 [4-((1S,4S)-5-(3-cyanophenyl)-2,5-diazabicyclo[2.2.1]heptan-2-yl)-N-hydroxybenzamide]	0.1 to 1	1 to 5	–
O=C(NO)c1ccc(CN2C(=O)c3cccnc3N(C3CC3)c3ccccc32)cc1 [4-((11-cyclopropyl-5-oxo-5H-benzo[b]pyrido[2,3-e][1,4]diazepin-6(11H)-yl)methyl)-N-hydroxybenzamide]	–	–	IC50 ([1]; Table 10): 0.1 to 1 µM; IC50 ([2]; Table 10): 5 to 15 µM
O=C(CCCCCN1C(=O)c2ccccc2N(C2CC2)c2ccccc21)NO [6-(5-cyclopropyl-11-oxo-5H-dibenzo[b,e][1,4]diazepin-10(11H)-yl)-N-hydroxyhexanamide]	–	–	IC50 ([1]; Table 10): 0.1 to 1 µM; IC50 ([2]; Table 10): 1 to 5 µM
O=C(CCCCCN1c2ccccc2CCc2ccccc21)NO [6-(10,11-dihydro-5H-dibenzo[b,f]azepin-5-yl)-N-hydroxyhexanamide]	–	–	IC50 ([1]; Table 10): < 0.05 µM; IC50 ([2]; Table 10): 1 to 5 µM
